The text below walks through data of US8033977B2, “Methods of enhancing radiation effects with metal nanoparticles” (NanoProbes, Inc., priority 1998, dated 2011).

For one data set, the system named is test animal tumor models. Conditions: co-administered with PALA, tetrahydrouridine and 5-fluoro-2′deoxyctidine, fractionated x-ray treatments; cited from earlier work.
The next data set relates to cellular DNA. Conditions: after incorporation into cellular DNA in vitro; 22-45% of thymine substituted; cited from earlier work.
The subject of a further data set is CD1 mice. Put plainly: In vivo tolerance of tungsten heteropolyanions in mice. Conditions: injected into CD1 mice. The protocol:
A column containing carboxymethyl cellulose medium was prepared and charged with tetramethylammonium acetate, then rinsed with deionized water. Silicotungstic acid (H4SiW12O40.30H2O, 10 mg/ml in water) was injected onto the column and ion exchanged to produce the cluster surrounded and charge-shielded by quaternary ammonium ions.
A complex between the quaternary cation, tetramethylammonium was also formed by mixing equimolar amounts of H4SiW12O40.30H2O, 10 mg/ml in water and tetramethylammonium bromide, 100 mg/ml in water. Some white precipitate was formed that was removed by centrifugation at 13 k×g for 10 minutes, then filtering through a molecular filter, Amicon Centricon 30, that only passes molecules less than 30,000 Daltons. […] Dilutions were prepared and injected into CD1 mice. Good tolerance and normal weight gain was found at blood concentrations of approximately 5 mg/ml, whereas the uncomplexed heteropoltungstate was lethal at 1 mg/ml.

As for `Nc1nc(=O)n([C@H]2C[C@H](O)[C@@H](CO)O2)cc1Cl` [5-chloro-2′-deoxycytidine], the dose enhancement result with test animal tumor models is “threefold”.
As to `O=c1[nH]c(=O)n([C@H]2C[C@H](O)[C@@H](CO)O2)cc1I` [iododeoxyuridine], the “radiotherapeutic advantage (factor)” value in the data set on cellular DNA is “about 3”.
“Silicotungstic acid [uncomplexed heteropoltungstate]” yielded a lethal blood concentration in the data set with CD1 mice of 1 mg/mL.
